Measurements from patent publication US9737545B2 (MERCK SHARP & DOHME CORP., priority 2013, dated 2017).

Biological target: T1, wildtype HIV-1 protease (Human immunodeficiency virus type 1 group M subtype B, UniProt P04585)
T1 construct: preincubated with the HIV-1 protease (wild type) enzyme in assay buffer; made in house; host or cells: Escherichia coli
Assay: Assay for Inhibition of Microbial Expressed HIV Protease (Pepcleav)
Format: biochemical
Method: Assay for Inhibition of Microbial Expressed HIV Protease (“Pepcleav”)
Studies of the inhibition of the wildtype HIV-1 protease (which was expressed in Escherichia coli) were carried out with a peptide substrate [Val-Ser-Gln-Asn-(βnaphthyl)Ala-Pro-Ile-Val (SEQ ID NO: 1)]. The inhibitor was first preincubated with the HIV-1 protease (wild type) enzyme in assay buffer (50 mM sodium acetate, pH 5.5, 100 mM NaCl, and 0.1% BSA) for 30 minutes at room temperature. Substrate was added to 400 micromolar in a total volume of 20 microliters containing 20 picomolar HIV-1 protease (final) and the reaction was incubated for 1 hour at 30° C. The reaction was quenched with the addition of formic acid and indinavir to 0.012% and 150 nM final concentrations, respectively. The product formation was determined after separation of product and substrate on a Zorbax Eclipse XDB-C18 column connected to an API 4000 mass spectrometer (Applied Biosystems) with multiple reaction monitoring (transitions were 644.5/428.9 and 615.4/422.2 (M1/M3) for product and indinavir respectively). The extent of inhibition of the reaction was determined from the peak area of the products. Analysis of the products, independently synthesized, provided quantitation standards and confirmation of the product composition.

Row | SMILES | IC50 [nM]
1 | COC(=O)N[C@H](C(=O)Nc1ccccc1CC[C@@H]1CN[C@H](c2nc3c(Cl)cc(C(F)(F)F)cc3[nH]2)CO1)C(c1ccccc1)c1ccccc1 [Example 26, methyl N-[(1S)-1-benzhydryl-2-[[2-[2-[(2R,5R)-5-[4-chloro-6-(trifluoromethyl)-1H-benzimidazol-2-yl]morpholin-2-yl]ethyl]phenyl]amino]-2-oxo-ethyl]carbamate] | 65.6
2 | COC(=O)N[C@H](C(=O)Nc1ccccc1CC[C@@H]1CN[C@H](c2nc3cc(F)c(Cl)cc3[nH]2)CO1)C(c1ccccc1)c1ccccc1 [Example 27, N-(2-{2-[(2R,5R)-5-(6-chloro-5-fluoro-1H-benzimidazol-2-yl)morpholin-2-yl]ethyl}phenyl)-Na-(methoxycarbonyl)-b-phenyl-L-phenylalaninamide] | 0.658
3 | COC(=O)N[C@H](C(=O)Nc1ccccc1CC[C@@H]1CN[C@H](c2nc3c(F)cccc3[nH]2)CO1)C(c1ccccc1)c1ccccc1 [Example 28, N-(2-{2-[(2R,5R)-5-(4-fluoro-1H-benzimidazol-2-yl)morpholin-2-yl]ethyl}phenyl)-Na-(methoxycarbonyl)-b-phenyl-L-phenylalaninamide] | 0.122
4 | COC(=O)N[C@H](C(=O)Nc1cccc(F)c1CC[C@@H]1CN[C@H](c2nc3cc(C)c(C)cc3[nH]2)CO1)C(c1ccccc1)c1ccccc1 [Example 29, N-(2-{2-[(2R,5R)-5-(5,6-dimethyl-1H-benzimidazol-2-yl)morpholin-2-yl]ethyl}-3-fluorophenyl)-Na-(methoxycarbonyl)-b-phenyl-L-phenylalaninamide] | 0.0127
5 | COC(=O)N[C@H](C(=O)Nc1cncc(F)c1CC[C@@H]1CN[C@H](c2nc3cc(C)c(C)cc3[nH]2)CO1)C(c1ccccc1)c1ccccc1 [Example 31, methyl N-[(1S)-1-benzhydryl-2-[[4-[2-[(2R,5R)-5-(5,6-dimethyl-1H-benzimidazol-2-yl)morpholin-2-yl]ethyl]-5-fluoro-3-pyridyl]amino]-2-oxo-ethyl]carbamate] | 0.00965
6 | COC(=O)N[C@H](C(=O)Nc1cnccc1CC[C@@H]1CN[C@H](c2nc3cc(C)c(C)cc3[nH]2)CO1)C(c1ccccc1)c1ccccc1 [Example 32, methyl N-[(1S)-1-benzhydryl-2-[[4-[2-[(2R,5R)-5-(5,6-dimethyl-1H-benzimidazol-2-yl)morpholin-2-yl]ethyl]-3-pyridyl]amino]-2-oxo-ethyl]carbamate] | 0.04
7 | Cc1cc2nc([C@@H]3CO[C@H](CCc4c(F)cncc4NC(=O)C4(Cc5ccccc5Cl)CC4)CN3)[nH]c2cc1C [Example 33] | 4.08
8 | Cc1cc2nc([C@@H]3CO[C@H](CCc4cc[nH]c(=O)c4NC(=O)[C@@H](N)C(c4ccccc4)c4ccccc4)CN3)[nH]c2cc1C [Example 34, N-(4-{2-[(2R,5R)-5-(5,6-dimethyl-1H-benzimidazol-2-yl)morpholin-2-yl]ethyl}-2-oxo-1,2-dihydropyridin-3-yl)-β-phenyl-L-phenylalaninamide] | 0.168
9 | COC(=O)N[C@H](C(=O)Nc1c(CC[C@@H]2CN[C@H](c3nc4cc(C)c(C)cc4[nH]3)CO2)cc[nH]c1=O)C(c1ccccc1)c1ccccc1 [Example 35, methyl N-[(1S)-1-benzhydryl-2-[[4-[2-[(2R,5R)-5-(5,6-dimethyl-1H-benzimidazol-2-yl)morpholin-2-yl]ethyl]-2-oxo-1H-pyridin-3-yl]amino]-2-oxo-ethyl]carbamate] | 0.159
10 | COC(=O)N[C@H](C(=O)Nc1ccccc1CC[C@@H]1CN[C@H](c2nnc(C)[nH]2)CO1)C(c1ccccc1)c1ccccc1 [Example 36, Nα-(methoxycarbonyl)-N-[2-(2-{(2R,5R)-5-[(5-methyl-4H-1,2,4-triazol-3-yl)]morpholin-2-yl}ethyl)phenyl]-β-phenyl-L-phenylalaninamide] | 16.5
11 | COC(=O)N[C@H](C(=O)Nc1ccccc1CC[C@@H]1CN[C@H](C#N)CO1)C(c1ccccc1)c1ccccc1 [Example 37, methyl [(1S)-2-[(2-{2-[(2R,5R)-5-cyanomorpholin-2-yl]ethyl}phenyl)amino]-1-(diphenylmethyl)-2-oxoethyl]carbamate] | 246
12 | COC(=O)N[C@H](C(=O)Nc1ccccc1CC[C@@H]1CN[C@H](c2nnn[nH]2)CO1)C(c1ccccc1)c1ccccc1 [Example 38, Nα-(methoxycarbonyl)-β-phenyl-N-(2-{2-[(2R,5R)-5-(1H-tetrazol-5-yl)morpholin-2-yl]ethyl}phenyl)-L-phenylalaninamide] | 2
13 | COC(=O)N[C@H](C(=O)Nc1ccccc1CC[C@@H]1CN[C@H](c2nnnn2Cc2ccccc2)CO1)C(c1ccccc1)c1ccccc1 [Example 39, methyl [(1S)-2-[(2-{2-[(2R,5R)-5-(1-benzyl-1H-tetrazol-5-yl)morpholin-2-yl]ethyl}phenyl)amino]-1-(diphenylmethyl)-2-oxoethyl]carbamate] | 653
14 | COC(=O)N[C@H](C(=O)Nc1ccccc1CC[C@@H]1CN[C@H](c2ncon2)CO1)C(c1ccccc1)c1ccccc1 [Example 41, methyl {(1S)-1-(diphenylmethyl)-2-[(2-{2-[(2R,5R)-5-(1,2,4-oxadiazol-3-yl)morpholin-2-yl]ethyl}phenyl)amino]-2-oxoethyl}carbamate] | 304
15 | COC(=O)N[C@H](C(=O)Nc1ccccc1CC[C@@H]1CN[C@H](c2ncc[nH]2)CO1)C(c1ccccc1)c1ccccc1 [Example 42] | 2.62
16 | COC(=O)N[C@H](C(=O)Nc1ccccc1CC[C@@H]1CN[C@H](c2ncc(C)[nH]2)CO1)C(c1ccccc1)c1ccccc1 [Example 43, methyl {(1S)-1-(diphenylmethyl)-2-[(2-{2-[(2R,5R)-5-(5-methyl-1H-imidazol-2-yl)morpholin-2-yl]ethyl}phenyl)amino]-2-oxoethyl}carbamate] | 1.02
17 | COC(=O)N[C@H](C(=O)Nc1ccccc1CC[C@@H]1CN[C@H](c2ncc(Cc3ccccc3)[nH]2)CO1)C(c1ccccc1)c1ccccc1 [Example 44, N-(2-{2-[(2R,5R)-5-(5-benzyl-1H-imidazol-2-yl)morpholin-2-yl]ethyl}phenyl)-Nα-(methoxycarbonyl)-β-phenyl-L-phenylalaninamide] | 0.568
18 | COC(=O)N[C@H](C(=O)Nc1ccccc1CC[C@@H]1CN[C@H](c2ncc(-c3ccccc3)[nH]2)CO1)C(c1ccccc1)c1ccccc1 [Example 45, Nα-(methoxycarbonyl)-β-phenyl-N-(2-{2-[(2R,5R)-5-(5-phenyl-1H-imidazol-2-yl)morpholin-2-yl]ethyl}phenyl)-L-phenylalaninamide] | 0.041
19 | COC(=O)N[C@H](C(=O)Nc1ccccc1CC[C@@H]1CN[C@H](c2cnc(-c3ccccc3)[nH]2)CO1)C(c1ccccc1)c1ccccc1 [Example 46, Nα-(methoxycarbonyl)-β-phenyl-N-(2-{2-[(2R,5R)-5-(2-phenyl-1H-imidazol-5-yl)morpholin-2-yl]ethyl}phenyl)-L-phenylalaninamide] | 841
20 | COC(=O)N[C@H](C(=O)Nc1ccccc1CC[C@@H]1CN[C@H](c2cnc(C)[nH]2)CO1)C(c1ccccc1)c1ccccc1 [Example 47, Nα-(methoxycarbonyl)-N-(2-{2-[(2R,5R)-5-(2-methyl-1H-imidazol-5-yl)morpholin-2-yl]ethyl}phenyl)-β-phenyl-L-phenylalaninamide] | 378
21 | COC(=O)N[C@H](C(=O)Nc1ccccc1CC[C@@H]1CN[C@H](c2nc(C)c(C)[nH]2)CO1)C(c1ccccc1)c1ccccc1 [Example 48, N-(2-{2-[(2R,5R)-5-(4,5-dimethyl-1H-imidazol-2-yl)morpholin-2-yl]ethyl}phenyl)-Nα-(methoxycarbonyl)-β-phenyl-L-phenylalaninamide] | 1.81
22 | C#C[C@@H]1CO[C@H](CCc2ccccc2NC(=O)[C@@H](NC(=O)OC)C(c2ccccc2)c2ccccc2)CN1 [Example 49, N-(2-{2-[(2R,5R)-5-ethynylmorpholin-2-yl]ethyl}phenyl)-Nα-(methoxycarbonyl)-β-phenyl-L-phenylalaninamide] | 824
23 | COC(=O)N[C@H](C(=O)Nc1ccccc1CC[C@@H]1CN[C@H](c2cn(Cc3ccccc3)nn2)CO1)C(c1ccccc1)c1ccccc1 [Example 50, N-(2-{2-[(2R,5R)-5-(1-benzyl-1H-1,2,3-triazol-4-yl)morpholin-2-yl]ethyl}phenyl)-Nα-(methoxycarbonyl)-β-phenyl-L-phenylalaninamide] | 36.3
24 | COC(=O)N[C@H](C(=O)Nc1ccccc1CC[C@@H]1CN[C@H](c2cnnn2Cc2ccccc2)CO1)C(c1ccccc1)c1ccccc1 [Example 51, N-(2-{2-[(2R,5R)-5-(1-benzyl-1H-1,2,3-triazol-5-yl)morpholin-2-yl]ethyl}phenyl)-Nα-(methoxycarbonyl)-β-phenyl-L-phenylalaninamide] | 576
25 | COC(=O)N[C@H](C(=O)Nc1ccccc1CC[C@@H]1CN[C@H](c2cnn[nH]2)CO1)C(c1ccccc1)c1ccccc1 [Example 52, Nα-(methoxycarbonyl)-β-phenyl-N-(2-{2-[(2R,5R)-5-(1H-1,2,3-triazol-5-yl)morpholin-2-yl]ethyl}phenyl)-L-phenylalaninamide] | 250
26 | COC(=O)N[C@H](C(=O)Nc1ccccc1CC[C@@H]1CN[C@H](c2cc3ccccc3[nH]2)CO1)C(c1ccccc1)c1ccccc1 [Example 53, N-(2-{2-[(2R,5R)-5-(1H-indol-2-yl)morpholin-2-yl]ethyl}phenyl)-Nα-(methoxycarbonyl)-β-phenyl-L-phenylalaninamide] | 44.4
